Experimental findings from patent US20040180862A1, “Compositions and methods for inhibiting bone resorption” (priority 2001, published 2004) are described below.

“Also recorded” adds a separate entry of the source. Where two headings read alike, the source gives them in different places.

Data set [1] concerns Ch1.Es esophageal fibroblasts. The data set is described as follows: Protein isoprenylation in Ch1.Es fibroblasts (immunoblot with anti-hDNAJ and anti-Rap1A markers). In kind it is cell-based. The method, then:
Cells were treated for 24 hours and protein lysates were analyzed for suppression of protein isoprenylation. Markers included either anti-hDNAJ, a farnesylated protein that migrates more slowly when farnesylation is absent (two bands observed) or anti-Rap1A, which we have shown previously to bind preferentially to Rap1A if isoprenylation is blocked (presence of a band indicates absence of protein geranylgeranylation) (See Reszka, A. A., Halasy-Nagy, J. and Rodan, G. A. Molecular Pharmacology 59:193-202, 2001).
(A) Cells pretreated for 24 hours with nothing or the squalene synthase inhibitor, zaragozic Acid A (Zara-A) at 3 μM (three lanes indicated).
Cells were treated for 24 hours and protein lysates were analyzed for suppression of protein isoprenylation. Markers included either anti-hDNAJ, a farnesylated protein that migrates more slowly when farnesylation is absent (two bands observed) or anti-Rap1A, which we have shown previously to bind preferentially to Rap1A if isoprenylation is blocked (presence of a band indicates absence of protein geranylgeranylation. See FIG. 1.
(A) Cells pretreated for 24 hours with nothing or the squalene synthase inhibitor, Zaragozic Acid A (Zara-A) at 3 μM (three lanes indicated).
In general terms: A western blot detects proteins with antibodies after separation by electrophoresis.

In data set [2] the test system is Ch1.Es esophageal fibroblasts. The data set is described as follows: Apoptosis in Ch1.Es cells (cell rounding and detachment from the dish). In kind it is cell-based. Particulars: for induction of apoptosis: bisphosphonate 300 μM, 24 hours; for suppression of ALN-induced apoptosis in absence of lipoprotein / suppression of RIS-induced apoptosis in absence of lipoprotein: FIG. 3: LPDS, Zara-A 10 μM; for suppression of ALN-induced apoptosis in absence of lipoprotein: ALN 300 μM 24 hours; for suppression of RIS-induced apoptosis in absence of lipoprotein: RIS 300 μM 24 hours. Here is the method:
Apoptosis is observed as cell rounding and detachment from the dish.
Ch1.Es cells were grown for 24 hours in either fetal bovine serum (FBS) (top panels) or lipoprotein-deficient […] (LPDS) in the absence (middle) or presence (bottom) of Zara-A (10 μM). […] (300 μM). Phenotypes were scored as in FIG. 2. The suppression of apoptosis is near complete after inclusion of Zara-A.

Data set [3] concerns Ch1.Es esophageal fibroblasts. Briefly: Activation of pro-apoptotic kinases (in-gel kinase assay, phospho-specific immunoblotting). Particulars: 300 μM, 24 hours. In kind it is cell-based. Here is the method: Cell lysates were analyzed using an in-gel kinase assay (top) or by immuno-blotting with anti-phospho-specific antibodies recognizing active MAP kinases (Erk1 and 2), p38, or Jun N-terminal kinase (Jnk).

In data set [4] the test system is skin. The data set is described as follows: Skin irritation after subcutaneous injection, histology (hematoxylin and eosin, affected area). In kind it is in vivo, Rats. Particulars: 5 days.
Method: Skin was harvested after necropsy, fixed with formalin, thin-sectioned and stained with hematoxylin and eosin. Area was determined by measuring the thickness and length of each affected area and is represented vs. the H2O control.
For data set [5], the system named is skin. Particulars: subcutaneous, 5 days; for effect of coadministered Zara-A on ALN-induced skin irritation / thickening: ALN 0.5 mg/kg with Zara-A 3 μg/kg; for effect of coadministered Zara-A on ALN-induced skin irritation / thickening / effect of coadministered Zara-A on RIS-induced skin irritation / thickening: P≦0.01; for effect of coadministered Zara-A on RIS-induced skin irritation / thickening: RIS 0.5 mg/kg with Zara-A 3 μg/kg.

Setting [6] is: ALN 300 μM, 24 hours, absence of Zara-A.
The mark [7] stands for this setting: Zara-A 0.1-10 μM pretreated 24 hours, then ALN 300 μM 24 hours.
Where [8] appears, read: listed as squalene synthase inhibitor.

`NCCCC(O)(P(=O)(O)O)P(=O)(O)O` [ALN, 4-amino-1-hydroxybutylidene-1,1-bisphosphonic acid monosodium trihydrate]: in data set [1] (setting [6]), the “inhibition of Rap1A geranylgeranylation” value is given as “strongly inhibits” and the “inhibition of hDNAJ farnesylation” value is “strongly inhibits”. Also, the induction of apoptosis entry in data set [2] is listed as “induced”. Also, in data set [3], the “activation of pro-apoptotic kinases” value is listed as “activate”.

On to `O=P(O)(O)C(O)(Cc1cccnc1)P(=O)(O)O` [RIS, 1-hydroxy-2-(3-pyridinyl)-ethylidene-1,1-bisphosphonic acid], for which the induction of apoptosis result in data set [2] is recorded as “induced”. Besides, in data set [3], the “activation of pro-apoptotic kinases” value is given as “activate”. For the same compound, the skin irritation result in data set [4] (0.5 mg/kg) is listed as “Skin irritation induced”. Also, in data set [5] (0.5 mg/kg, vehicle control 50-100), the “volume of affected skin area” value was 240 mm^3.

On to `C=C(CC[C@]12O[C@H](C(=O)O)[C@@](O)(C(=O)O)[C@](C(=O)O)(O1)[C@H](OC(=O)/C=C/[C@@H](C)C[C@@H](C)CC)[C@H]2O)[C@@H](OC(C)=O)[C@H](C)Cc1ccccc1` [Zara-A, zaragozic Acid A], for which the “effect of Zara-A pretreatment on ALN inhibition of Rap1A geranylgeranylation” value in data set [1] (Zara-A 3 μM pretreated 24 hours, then ALN 300 μM 24 hours) was “reduced; also recorded: diminished”. In addition, in data set [1] (setting [7]), the “effect of Zara-A on capacity of ALN to inhibit Rap1A geranylgeranylation” value is “dose-dependently reduces; also recorded: dose-dependently diminished” and the “effect of Zara-A on capacity of ALN to inhibit hDNAJ farnesylation” value was “dose-dependently reduces; also recorded: dose-dependently diminished”. Besides, the “suppression of ALN-induced apoptosis” value in data set [2] (FIG. 2: Zara-A 24 hours, then ALN 300 μM 24 hours) is reported as “suppression”. For the same compound, in data set [2], the “suppression of ALN-induced apoptosis in absence of lipoprotein” value was “near complete” and the “suppression of RIS-induced apoptosis in absence of lipoprotein” value was “near complete”. In data set [2] (setting [8]), the “suppression of ALN-induced apoptosis in absence of lipoprotein” value is listed as “maximally suppresses” and the “suppression of RIS-induced apoptosis in absence of lipoprotein” value is on record as “maximally suppresses”. In data set [4] (FIG. 6: ALN 0.5 mg/kg with Zara-A 3 μg/kg), the “suppression of ALN-induced skin irritation” value is on record as “suppresses”. Moreover, in data set [5], the “effect of coadministered Zara-A on ALN-induced skin irritation / thickening” value is on record as “significantly reduced” and the “effect of coadministered Zara-A on RIS-induced skin irritation / thickening” value is recorded as “significantly reduced”. For the same compound, in data set [5] (setting [8]), the “effect of coadministered Zara-A on ALN-induced skin irritation / thickening” value is “suppresses” and the “effect of coadministered Zara-A on RIS-induced skin irritation / thickening” value is “suppresses”.
